Measurements published in PubChem BioAssay (NCI).
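Compound exposure: 48 hours, 5 concentrations, 96-well plates. GI50: concentration for 50% inhibition of growth. TGI marks complete inhibition of growth.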

Assays:
Assay in all cases: DTP human tumour cell line panel, 48 h
HOP-92 NSCLC = test system: HOP-92 NSCLC
CCRF-CEM leukemia = test system: CCRF-CEM leukemia
NCI-H460 lung = test system: NCI-H460 lung
KM12 colon = test system: KM12 colon
SN12C renal = test system: SN12C renal
OVCAR-4 ovarian = test system: OVCAR-4 ovarian
HOP-62 NSCLC = test system: HOP-62 NSCLC
HL-60(TB) leukemia = test system: HL-60(TB) leukemia
SK-MEL-28 melanoma = test system: SK-MEL-28 melanoma
SK-OV-3 ovarian = test system: SK-OV-3 ovarian

SMILES	GI50 (HOP-92 NSCLC)	TGI (HOP-92 NSCLC)	GI50 (CCRF-CEM leukemia)	TGI (CCRF-CEM leukemia)	GI50 (NCI-H460 lung)	TGI (NCI-H460 lung)	GI50 (KM12 colon)	TGI (KM12 colon)	GI50 (SN12C renal)	TGI (SN12C renal)	GI50 (OVCAR-4 ovarian)	TGI (OVCAR-4 ovarian)	GI50 (HOP-62 NSCLC)	TGI (HOP-62 NSCLC)	GI50 (HL-60(TB) leukemia)	TGI (HL-60(TB) leukemia)	GI50 (SK-MEL-28 melanoma)	TGI (SK-MEL-28 melanoma)	GI50 (SK-OV-3 ovarian)	TGI (SK-OV-3 ovarian)
Cc1cc(Cl)ccc1Nc1nc(C(F)(F)F)ccc1C(=O)N/N=C/c1c(Cl)cccc1Cl	0.221 µM	0.664 µM	0.107 µM	> 100 µM	0.322 µM	4.39 µM	0.254 µM	1.92 µM	0.262 µM	> 100 µM	0.289 µM	> 100 µM	0.876 µM	> 27.2 µM	0.229 µM	0.53 µM	0.806 µM	> 100 µM	0.486 µM	3.29 µM
COc1ccc(C2SC(C)C(=O)N2NC(=O)C(O)c2ccccc2)cc1 (centres undefined)	> 100 µM	> 100 µM	> 100 µM	> 100 µM	> 100 µM	> 100 µM	> 100 µM	> 100 µM	> 100 µM	> 100 µM	> 100 µM	> 100 µM	> 100 µM	> 100 µM	> 100 µM	> 100 µM	> 100 µM	> 100 µM	63.1 µM	> 100 µM
C=C1CCC2C(C)(CO)C(O)CCC2(C)C1CC(O)C1=CCOC1=O (centres undefined)		> 100 µM		84.3 µM		> 100 µM		> 100 µM		> 100 µM		> 100 µM		> 100 µM		85.9 µM		> 100 µM		> 100 µM
COC1(C)Cc2c(c(C)c(O)c3c2C(=O)C=C(Cl)C3=O)O1 (centres undefined)		36.4 µM		26.3 µM		> 100 µM		> 100 µM		> 96.7 µM		> 86.8 µM		> 100 µM		14.8 µM		> 66.3 µM		> 100 µM
O=C(O)c1cn(C2CC2)c2cc(N3CCN(C(=O)Nc4nc(-c5ccc(Cl)cc5)cs4)CC3)c(F)cc2c1=O	1.85 µM	7.63 µM	1.22 µM	> 100 µM	1.76 µM	> 100 µM	2.15 µM	> 100 µM	3.53 µM	> 100 µM	3.61 µM	> 100 µM	3 µM	96.1 µM	1.47 µM	4.76 µM	0.701 µM	> 100 µM	2.35 µM	8.12 µM
NNc1nc(-c2ccccn2)nc2sc3c(c12)CCCCCC3	3.54 µM	48.6 µM	4.42 µM	> 100 µM	4.22 µM	57.5 µM	6.46 µM	99 µM	6.36 µM	> 100 µM	10.4 µM	> 100 µM	8.57 µM	> 100 µM	4.46 µM	36.3 µM	14.9 µM	> 100 µM	30.9 µM	> 100 µM
OCCCNC(=S)Nc1ccc(-c2nc3ccccc3s2)cc1	19.7 µM	82.9 µM	16.9 µM	> 100 µM	25.9 µM	> 100 µM	17.8 µM	46.9 µM	22.8 µM	54.8 µM	28.1 µM	> 100 µM	31.8 µM	> 100 µM	25.5 µM	> 100 µM	24.9 µM	70.3 µM	63.7 µM	> 100 µM
CCOC(=O)C1=C(N)Oc2cc(OC)ccc2C1c1ccc(F)c(F)c1 (centres undefined)	3.54 µM	19.4 µM	2.26 µM	19.7 µM	1.01 µM	15.2 µM	0.637 µM	15.9 µM	4.97 µM	19.5 µM	3.37 µM	18.6 µM	2.13 µM	19.4 µM	0.404 µM	4.8 µM	6.44 µM	21.9 µM	3.66 µM	16.4 µM
CCN1CCN(Cc2ccc3cc(C(=O)Nc4cc(NC(=O)c5ccc6c(c5)OCCO6)ccc4F)ccc3n2)CC1	0.0555 µM	0.557 µM	0.118 µM	2.54 µM	0.037 µM	0.563 µM	0.0786 µM	7.63 µM	0.0524 µM	1.82 µM	0.0772 µM	1.91 µM	0.0617 µM	12 µM	0.0238 µM	0.182 µM	0.118 µM	6.75 µM	0.0341 µM	1.14 µM
NC(CCCNCc1ccccc1O)C(=O)O (centres undefined)		> 100 µM		> 100 µM		> 100 µM		> 100 µM		> 100 µM		> 100 µM		> 100 µM		> 100 µM		> 100 µM		> 100 µM
CC1=NN(c2ccccc2)C(=O)C1C(=O)C(=O)Nc1ccc(C)cc1C (centres undefined)		> 100 µM		> 100 µM		> 100 µM		> 100 µM		> 100 µM		> 100 µM		> 100 µM		> 100 µM		> 100 µM		> 100 µM
COc1ccc(OC)c2c3c(ncc12)-c1cc2c(cc1C3)OCO2	> 100 µM	> 100 µM	> 100 µM	> 100 µM	5.6 µM	> 100 µM	> 100 µM	> 100 µM	> 100 µM	> 100 µM	> 100 µM	> 100 µM		0.0603 µM	24.8 µM	> 100 µM	> 100 µM	> 100 µM	> 100 µM	> 100 µM
COc1ccc(-c2oncc2-c2cc(OC)c3c(c2)OCO3)cc1	2.08 µM	28.6 µM	2.2 µM	> 43.6 µM	3.58 µM	> 100 µM	2.66 µM	> 82.2 µM	5.23 µM	> 100 µM	10 µM	> 100 µM	3.91 µM	> 71.1 µM	2.53 µM	> 26.5 µM	3.21 µM	> 100 µM	3.76 µM	> 40.4 µM
CCCN1CN(C(C(=O)N[C@@H]2C(=O)N3C(C(=O)O)=C(C)CSC23)c2ccccc2)CSC1=S (some centres undefined)		> 100 µM		> 100 µM		> 100 µM		> 100 µM		> 100 µM		> 100 µM		> 100 µM		> 100 µM		> 100 µM		> 100 µM
